Measurements reported in PubChem BioAssay (NCI).
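Five concentrations, 48 hours, 96-well plates. The concentration for 50% growth inhibition is given as GI50. TGI: total growth inhibition.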

Tests used:
Assay in all cases: NCI anticancer screen, dose series, 48 h
HCC-2998 colon = test system: HCC-2998 colon
HCT-116 colon = test system: HCT-116 colon
RXF 393 renal = test system: RXF 393 renal
SF-295 CNS = test system: SF-295 CNS
SNB-19 CNS = test system: SNB-19 CNS
UO-31 renal = test system: UO-31 renal
HS 578T breast = test system: HS 578T breast
MDA-MB-231 breast = test system: MDA-MB-231 breast
PC-3 prostate = test system: PC-3 prostate
SR leukemia = test system: SR leukemia

CC(=O)Nc1ccc(/C=C/C(=O)c2sc(-n3nc(-c4ccccc4)cc3-c3ccccc3)nc2C)cc1
GI50 (HCC-2998 colon): > 100 µM
TGI (HCC-2998 colon): > 100 µM
GI50 (HCT-116 colon): > 100 µM
TGI (HCT-116 colon): > 100 µM
GI50 (RXF 393 renal): > 100 µM
TGI (RXF 393 renal): > 100 µM
GI50 (SF-295 CNS): > 100 µM
TGI (SF-295 CNS): > 100 µM
GI50 (SNB-19 CNS): > 100 µM
TGI (SNB-19 CNS): > 100 µM
GI50 (UO-31 renal): > 100 µM
TGI (UO-31 renal): > 100 µM

c1c[nH]c(CN2CCN(Cc3ncc[nH]3)CC2)n1
TGI (HCT-116 colon): > 100 µM
TGI (HS 578T breast): > 100 µM
TGI (MDA-MB-231 breast): > 100 µM
TGI (PC-3 prostate): > 100 µM
TGI (RXF 393 renal): > 100 µM
TGI (SF-295 CNS): > 100 µM
TGI (SNB-19 CNS): > 100 µM
TGI (SR leukemia): > 100 µM
TGI (UO-31 renal): > 100 µM

O=C(c1ccco1)c1c(C(F)(F)F)n([O-])c2cc(Cl)c(Cl)cc2[n+]1=O
GI50 (HCC-2998 colon): 0.606 µM
TGI (HCC-2998 colon): 1.26 µM
GI50 (HCT-116 colon): 0.269 µM
TGI (HCT-116 colon): 0.921 µM
GI50 (HS 578T breast): 0.706 µM
TGI (HS 578T breast): 1.98 µM
GI50 (MDA-MB-231 breast): 0.843 µM
TGI (MDA-MB-231 breast): 1.77 µM
GI50 (PC-3 prostate): 0.23 µM
TGI (PC-3 prostate): 1.01 µM
GI50 (SF-295 CNS): 0.247 µM
TGI (SF-295 CNS): 0.825 µM
GI50 (SNB-19 CNS): 6.41 µM
TGI (SNB-19 CNS): 14.8 µM
GI50 (SR leukemia): 0.0497 µM
TGI (SR leukemia): 50 µM
GI50 (UO-31 renal): 0.0465 µM
TGI (UO-31 renal): 0.211 µM

Nc1nc(-c2ccccn2)c(-c2ccc3ncccc3n2)s1
GI50 (HCC-2998 colon): > 25 µM
TGI (HCC-2998 colon): > 25 µM
GI50 (HCT-116 colon): > 25 µM
TGI (HCT-116 colon): > 25 µM
GI50 (HS 578T breast): > 25 µM
TGI (HS 578T breast): > 25 µM
GI50 (MDA-MB-231 breast): > 25 µM
TGI (MDA-MB-231 breast): > 25 µM
GI50 (PC-3 prostate): > 25 µM
TGI (PC-3 prostate): > 25 µM
GI50 (RXF 393 renal): > 25 µM
TGI (RXF 393 renal): > 25 µM
GI50 (SF-295 CNS): > 25 µM
TGI (SF-295 CNS): > 25 µM
GI50 (SNB-19 CNS): > 25 µM
TGI (SNB-19 CNS): > 25 µM
GI50 (UO-31 renal): > 25 µM
TGI (UO-31 renal): > 25 µM

O=C1N(c2ccccc2)C2(O)C(=O)c3ccccc3C2(O)N1c1ccccc1 (centres undefined)
TGI (HCC-2998 colon): > 100 µM
TGI (HCT-116 colon): > 100 µM
TGI (RXF 393 renal): > 100 µM
TGI (SF-295 CNS): > 100 µM
TGI (SNB-19 CNS): > 100 µM
TGI (SR leukemia): > 100 µM
TGI (UO-31 renal): > 100 µM

COc1cc(Br)c(C2OCCCO2)cc1OCc1ccccc1
TGI (HCT-116 colon): > 100 µM
TGI (RXF 393 renal): > 100 µM
TGI (SF-295 CNS): > 100 µM
TGI (SNB-19 CNS): > 100 µM
TGI (UO-31 renal): > 100 µM

COC(=O)[C@@H](C)C[C@H](Cc1ccccc1)NC(=O)c1nc([C@@H](C[C@H](C(C)C)N(C)C(=O)[C@@H](NC(=O)[C@H]2CC(=O)CCN2C)C(C)C)OC(C)=O)sc1C(C)C
GI50 (HCC-2998 colon): 0.141 µM
TGI (HCC-2998 colon): > 16 µM
GI50 (HCT-116 colon): 0.169 µM
TGI (HCT-116 colon): 3.04 µM
GI50 (HS 578T breast): 0.16 µM
TGI (HS 578T breast): > 3.85 µM
GI50 (MDA-MB-231 breast): 0.373 µM
TGI (MDA-MB-231 breast): 3.28 µM
GI50 (PC-3 prostate): 0.129 µM
TGI (PC-3 prostate): > 16.7 µM
GI50 (SF-295 CNS): 0.277 µM
TGI (SF-295 CNS): 3.02 µM
GI50 (SNB-19 CNS): 0.183 µM
TGI (SNB-19 CNS): > 16.7 µM
GI50 (SR leukemia): 0.021 µM
TGI (SR leukemia): > 16.7 µM
GI50 (UO-31 renal): 0.951 µM
TGI (UO-31 renal): > 10.5 µM

O=c1ccn([C@@H]2C[C@H](CO)CS(=O)C2)c(=O)[nH]1 (some centres undefined)
TGI (HCC-2998 colon): > 100 µM
TGI (HCT-116 colon): > 100 µM
TGI (SF-295 CNS): > 100 µM
TGI (SNB-19 CNS): > 100 µM
TGI (UO-31 renal): > 100 µM

CC(=O)NNc1nc(C)c(C(=O)NNC(=O)C(=O)Nc2ccc(C)cc2[N+](=O)[O-])s1
TGI (HCC-2998 colon): > 100 µM
TGI (HCT-116 colon): > 100 µM
TGI (RXF 393 renal): > 100 µM
TGI (SF-295 CNS): > 100 µM
TGI (SNB-19 CNS): > 100 µM
TGI (SR leukemia): > 100 µM
TGI (UO-31 renal): > 100 µM

CC(C)CC(=O)O[C@H]1C(=O)O[C@@H]2C[C@H]3[C@H](C)C(=O)C(O[C@@H]4O[C@H](CO)[C@@H](O)[C@H](O)[C@H]4O)=C[C@]3(C)[C@H]3[C@@H](O)[C@H](O)[C@]4(C(=O)O)OC[C@]32[C@@H]14
GI50 (HCC-2998 colon): 20.6 µM
TGI (HCC-2998 colon): 54.4 µM
GI50 (HCT-116 colon): 32.8 µM
TGI (HCT-116 colon): > 100 µM
GI50 (HS 578T breast): 39.8 µM
TGI (HS 578T breast): > 100 µM
GI50 (MDA-MB-231 breast): > 100 µM
TGI (MDA-MB-231 breast): > 100 µM
TGI (PC-3 prostate): > 100 µM
GI50 (RXF 393 renal): 10.8 µM
TGI (RXF 393 renal): 38.7 µM
GI50 (SNB-19 CNS): 31.9 µM
TGI (SNB-19 CNS): > 100 µM
GI50 (SR leukemia): 33.6 µM
TGI (SR leukemia): > 100 µM
TGI (UO-31 renal): > 100 µM

COC(=O)N1C=Cc2c(c(C)c3c([nH]c4ccccc43)c2C)C1C (centres undefined)
TGI (HCC-2998 colon): 32.1 µM
TGI (HCT-116 colon): 25.6 µM
TGI (SF-295 CNS): 28.6 µM
TGI (SNB-19 CNS): 35.6 µM
TGI (UO-31 renal): 34.2 µM

CC(=O)O[C@@H]1[C@H]2O[C@H]2[C@H]2O[C@@]2(COC(=O)c2ccccc2)[C@H]1OC(C)=O
TGI (HCC-2998 colon): > 100 µM
TGI (HCT-116 colon): > 100 µM
TGI (HS 578T breast): > 100 µM
TGI (MDA-MB-231 breast): > 100 µM
TGI (PC-3 prostate): > 100 µM
TGI (SF-295 CNS): > 100 µM
TGI (SNB-19 CNS): > 100 µM
TGI (UO-31 renal): > 100 µM

COc1ccc2c(c1)c(-c1nc(-c3cn(C)c4ncccc34)cs1)cn2CCCCN1CCCCC1
GI50 (PC-3 prostate): 1.61 µM
TGI (PC-3 prostate): 3 µM
GI50 (RXF 393 renal): 1.33 µM
TGI (RXF 393 renal): 2.82 µM
GI50 (UO-31 renal): 1.43 µM
TGI (UO-31 renal): 2.77 µM

N#CC(NNC(=O)c1ccccc1O)c1ccccc1O (centres undefined)
TGI (HCT-116 colon): > 100 µM
TGI (RXF 393 renal): > 100 µM
TGI (SF-295 CNS): > 100 µM
TGI (SR leukemia): > 100 µM
TGI (UO-31 renal): 48.4 µM

O=C(c1ccccc1)N1CCc2c([nH]c3ccccc23)C1
TGI (HCC-2998 colon): > 100 µM
TGI (HCT-116 colon): > 100 µM
TGI (SF-295 CNS): > 100 µM
TGI (SNB-19 CNS): > 100 µM
TGI (SR leukemia): > 100 µM
TGI (UO-31 renal): 99.2 µM

BrC(/C=N/Nc1nnc(-c2ccccc2)c(-c2ccccc2)n1)C(Br)c1ccccc1 (centres undefined)
TGI (HCC-2998 colon): > 100 µM
TGI (RXF 393 renal): > 100 µM
TGI (SF-295 CNS): > 100 µM
TGI (SNB-19 CNS): > 100 µM
TGI (UO-31 renal): 60.5 µM

CSc1cnc2ccccc2c1Sc1cn(C)c2ccccc2c1=O
TGI (HCC-2998 colon): > 100 µM
TGI (HCT-116 colon): > 100 µM
TGI (RXF 393 renal): > 100 µM
TGI (SF-295 CNS): > 100 µM
TGI (SNB-19 CNS): 83.3 µM
TGI (SR leukemia): > 100 µM
TGI (UO-31 renal): > 100 µM

COc1cc(/C=C(\C#N)C(=O)c2ccccc2)cc(OC)c1OC
TGI (HCC-2998 colon): > 100 µM
TGI (HCT-116 colon): > 100 µM
TGI (RXF 393 renal): 96.8 µM
TGI (SF-295 CNS): > 100 µM
TGI (SNB-19 CNS): > 100 µM
TGI (SR leukemia): > 100 µM
TGI (UO-31 renal): > 100 µM

CCOc1ccc(/C=C/C(=O)c2sc(NNC(C)=O)nc2C)cc1
TGI (HCC-2998 colon): > 100 µM
TGI (RXF 393 renal): > 100 µM
TGI (SF-295 CNS): > 100 µM
TGI (SNB-19 CNS): > 100 µM
TGI (UO-31 renal): > 100 µM

Cc1[nH]n(C(=O)Cc2ccccc2)c(=O)c1/C=C1\C(=O)C=Cc2ccccc21
TGI (HCC-2998 colon): > 100 µM
TGI (HCT-116 colon): > 100 µM
TGI (SF-295 CNS): > 100 µM
TGI (SNB-19 CNS): > 100 µM
TGI (SR leukemia): > 100 µM
TGI (UO-31 renal): 79.9 µM

CCc1cccc(CC)c1NC1=CC(=O)C(=O)c2ccccc21
TGI (HCC-2998 colon): 28.8 µM
TGI (HCT-116 colon): 34.8 µM
TGI (RXF 393 renal): 45.2 µM
TGI (SF-295 CNS): 28.3 µM
TGI (SNB-19 CNS): 63.3 µM
TGI (SR leukemia): > 100 µM
TGI (UO-31 renal): 46.9 µM

CC(=O)[O-].O=C([CH-]C(=O)c1ccccc1)c1ccccc1.O=C([CH-]C(=O)c1ccccc1)c1ccccc1.[Dy+3]
GI50 (HCC-2998 colon): 11.6 µM
TGI (HCC-2998 colon): 36.2 µM
GI50 (HCT-116 colon): 5.75 µM
TGI (HCT-116 colon): 23.1 µM
GI50 (RXF 393 renal): 6.84 µM
TGI (RXF 393 renal): 34.7 µM
GI50 (SF-295 CNS): 7.73 µM
TGI (SF-295 CNS): 28.8 µM
GI50 (SNB-19 CNS): 14.8 µM
TGI (SNB-19 CNS): 70.3 µM
GI50 (UO-31 renal): 8.35 µM
TGI (UO-31 renal): 32.5 µM
